From patent US20230079045A1 (priority 2019, published 2023)

These molecules were tested on IFV A/PR/8/34 (assay: cytopathic effect (CPE) antiviral test in MDCK cells, IFV A/PR/8/34). Conditions: unidentified influenza virus, PR/8, MDCK, 120 h, read-out: EC50(IFV A/PR/8/34).
Type: cell-based, influenza virus

First: CC(C)(F)C(=O)Nc1ccc2oc(-c3ccnc(C(=O)N4CCC(C(c5ccccc5)n5nnc(C(F)F)n5)CC4)c3)nc2c1 (racemic) [Compound 164, (R/S)—N-(2-(2-(4-((5-(difluoromethyl)-2H-tetrazol-2-yl)(phenyl)methyl)piperidine-1-carbonyl)pyridin-4-yl)benzo[d]oxazol-5-yl)-2-fluoro-2-methylpropanamide]
Second: Cn1cncc1-c1ccc2oc(-c3ccnc(C(=O)N4CCC(C(c5ccccc5)n5nnc(C(F)F)n5)CC4)c3)nc2c1 (racemic) [Compound 166, (R/S)-(4-((5-(difluoromethyl)-2H-tetrazol-2-yl)(phenyl)methyl)piperidin-1-yl)(4-(5-(1-methyl-1H-imidazol-5-yl)benzo[d]oxazol-2-yl)pyridin-2-yl)methanone]
The EC50 of the first is 2.2-fold higher: 13 nM for the first, 6 nM for the second. The second is the more potent here.

Compared with Cn1cc(-c2ccc3oc(-c4ccnc(C(=O)N5CCN(C(c6ccccc6)c6nnn(C(F)F)n6)CC5)c4)cc3c2)cn1 (racemic) [Compound 165, (R/S)-(4-((2-(difluoromethyl)-2H-tetrazol-5-yl)(phenyl)methyl)piperazin-1-yl)(4-(5-(1-methyl-1H-pyrazol-4-yl)benzofuran-2-yl)pyridin-2-yl)methanone], O=C(c1cc(-c2nc3cc(-c4cnoc4)ccc3o2)ccn1)N1CCN(C(c2ccccc2)c2nnn(C(F)F)n2)CC1 (racemic) [Compound 174, (R/S)-(4-((2-(difluoromethyl)-2H-tetrazol-5-yl)(phenyl)methyl)piperazin-1-yl)(4-(5-(isoxazol-4-yl)benzo[d]oxazol-2-yl)pyridin-2-yl)methanone] is 1.5-fold higher in EC50: 10 nM for the first, 15 nM for the second. The first is the more potent here.

Going from Cc1nnn(C(c2ccccc2)C2CCN(C(=O)c3cc(-c4nc5cc(-c6cncn6C)ccc5o4)ccn3)CC2)n1 (racemic) [Compound 167, (R/S)-(4-(5-(1-methyl-1H-imidazol-5-yl)benzo[d]oxazol-2-yl)pyridin-2-yl)(4-((5-methyl-2H-tetrazol-2-yl)(phenyl)methyl)piperidin-1-yl)methanone] to Cc1nnn(C(c2ccccc2)C2CCN(C(=O)c3cc(-c4nc5cc(-c6ccn(C)n6)ccc5o4)ccn3)CC2)n1 (racemic) [Compound 183, (R/S)-(4-(5-(1-methyl-1H-pyrazol-3-yl)benzo[d]oxazol-2-yl)pyridin-2-yl)(4-((5-methyl-2H-tetrazol-2-yl)(phenyl)methyl)piperidin-1-yl)methanone], the EC50 rises from 5 nM to 18 nM (3.6-fold).

O=C(c1cc(-c2nc3cc(-c4cn(C(F)F)cn4)ccc3o2)ccn1)N1CCN(C(c2ccccc2)c2nnn(C(F)F)n2)CC1 (racemic) [Compound 170, (R/S)-(4-(5-(1-(difluoromethyl)-1H-imidazol-4-yl)benzo[d]oxazol-2-yl)pyridin-2-yl)(4-((2-(difluoromethyl)-2H-tetrazol-5-yl)(phenyl)methyl)piperazin-1-yl)methanone] and O=C(c1cc(-c2nc3cc(-c4cncn4C(F)F)ccc3o2)ccn1)N1CCN(C(c2ccccc2)c2nnn(C(F)F)n2)CC1 (racemic) [Compound 171, (R/S)-(4-(5-(1-(difluoromethyl)-1H-imidazol-5-yl)benzo[d]oxazol-2-yl)pyridin-2-yl)(4-((2-(difluoromethyl)-2H-tetrazol-5-yl)(phenyl)methyl)piperazin-1-yl)methanone] are within 1.5-fold of each other in EC50: 7 nM for the first, 5 nM for the second.

First: Cc1nnn(C(c2ccccc2)C2CCN(C(=O)c3cc(-c4cc5cc(-c6cncn6C)ccc5o4)ccn3)CC2)n1 (racemic) [Compound 186, (R/S)-(4-(5-(1-methyl-1H-imidazol-5-yl)benzofuran-2-yl)pyridin-2-yl)(4-((5-methyl-2H-tetrazol-2-yl)(phenyl)methyl)piperidin-1-yl)methanone]
Second: Cc1nnn([C@@H](c2ccccc2)C2CCN(C(=O)c3cc(-c4cc5cc(NC(=O)[C@@H]6C[C@@H]6F)ccc5o4)ccn3)CC2)n1 [Compound 139, (1S,2S)-2-fluoro-N-(2-(2-(4-((R)-(5-methyl-2H-tetrazol-2-yl)(phenyl)methyl)piperidine-1-carbonyl)pyridin-4-yl)benzofuran-5-yl)cyclopropanecarboxamide]
The EC50 of the first is 2-fold lower: 2 nM for the first, 4 nM for the second.

First: Cc1nnn(C(c2ccccc2)C2CCN(C(=O)c3cc(-c4nc5cc(-c6cnn(C)c6C)ccc5o4)ccn3)CC2)n1 (racemic) [Compound 187, (R/S)-(4-(5-(1,5-dimethyl-1H-pyrazol-4-yl)benzo[d]oxazol-2-yl)pyridin-2-yl)(4-((5-methyl-2H-tetrazol-2-yl)(phenyl)methyl)piperidin-1-yl)methanone]
Second: Cc1cn(-c2ccc3oc(-c4ccnc(C(=O)N5CCC(C(c6ccccc6)n6nnc(C)n6)CC5)c4)nc3c2)cn1 (racemic) [Compound 189, (R/S)-(4-(5-(4-methyl-1H-imidazol-1-yl)benzo[d]oxazol-2-yl)pyridin-2-yl)(4-((5-methyl-2H-tetrazol-2-yl)(phenyl)methyl)piperidin-1-yl)methanone]
The EC50 of the first is 1.8-fold lower: 6 nM for the first, 11 nM for the second. The first is the more potent here.

[2H]C([2H])([2H])c1nnn(C(c2ccccc2)C2CCN(C(=O)c3cc(-c4nc5cc(NC(=O)[C@@H]6C[C@@H]6F)ccc5o4)ccn3)CC2)n1 (mixture of isomers) [Compound 201, (1S,2S)-2-fluoro-N-(2-(2-(4-((R/S)-(5-(methyl-d3)-2H-tetrazol-2-yl)(phenyl)methyl)piperidine-1-carbonyl)pyridin-4-yl)benzo[d]oxazol-5-yl)cyclopropane-1-carboxamide] and Cc1nnn(C(c2ccccc2)C2CCN(C(=O)c3cc(-c4nc5ccc(NC(=O)[C@@H]6C[C@@H]6F)cc5o4)ccn3)CC2)n1 (single isomer, unassigned) [Compound 134] are within 1.5-fold of each other in EC50: 3.6 nM for the first, 4 nM for the second.

First: O=C(c1cc(-c2nc3cc(-c4cncn4C(F)F)ccc3o2)ccn1)N1CCC(C(c2ccccc2)n2nnc(CO)n2)CC1 (racemic) [Compound 206, (R/S)-(4-(5-(1-(difluoromethyl)-1H-imidazol-5-yl)benzo[d]oxazol-2-yl)pyridin-2-yl)(4-((5-(hydroxymethyl)-2H-tetrazol-2-yl)(phenyl)methyl)piperidin-1-yl)methanone]
Second: O=C(c1cc(-c2nc3cc(-c4cn(C(F)F)cn4)ccc3o2)ccn1)N1CCC(C(c2ccccc2)n2nnc(CO)n2)CC1 (racemic) [Compound 207, (R/S)-(4-(5-(1-(difluoromethyl)-1H-imidazol-4-yl)benzo[d]oxazol-2-yl)pyridin-2-yl)(4-((5-(hydroxymethyl)-2H-tetrazol-2-yl)(phenyl)methyl)piperidin-1-yl)methanone]
The EC50 of the first is 3.5-fold higher: 4.5 nM for the first, 1.3 nM for the second. The second is the more potent here.

Going from Cc1nnn(C(c2ccc(F)cc2)C2CCN(C(=O)c3cc(-c4nc5cc(NC(=O)[C@@H]6C[C@@H]6F)ccc5o4)ccn3)CC2)n1 (single isomer, unassigned) [Compound 202] to [2H]C([2H])([2H])C(C(=O)Nc1ccc2oc(-c3ccnc(C(=O)N4CCN([C@H](c5ccccc5)c5nnn(C(F)F)n5)CC4)c3)cc2c1)C([2H])([2H])[2H] [Compound 136, 3,3,3-trideuterio-N-[2-[2-[4-[(R)-[2-(difluoromethyl)tetrazol-5-yl]-phenyl-methyl]piperazine-1-carbonyl]-4-pyridyl]benzofuran-5-yl]-2-(trideuteriomethyl)propanamide], the EC50 rises from 2.6 nM to 8 nM (3.1-fold).
